The values that follow are results of earlier work, collected in article PMC5238771 (OncoTargets and therapy, 2017).

One series has as its system CYP3A4 enzyme. The conditions noted are these: both in vitro and in vivo.
Series [1] concerns HepG2 human hepatocellular carcinoma cell line. The conditions noted are these: HepG2 cells, dose-dependent and time-dependent.
Series [2] has as its system SMMC-7721 human hepatocellular carcinoma cell line. Conditions: SMMC-7721 cells, dose-dependent and time-dependent.

For `C[C@]12CC[C@H](O)C[C@H]1CC[C@@H]1[C@@H]2CC[C@]2(C)[C@@H](c3ccc(=O)oc3)CC[C@]12O` [bufalin], the “Inhibition of CYP3A4 enzyme” value with CYP3A4 enzyme is “modest but significant inhibition”. For the same compound, the Inhibition of proliferation entry in series [1] and in series [2] was “inhibited the proliferation” in each case.
